Measurements as given in ChEMBL document CHEMBL1201862, “PubChem BioAssay data set” (2004).
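Dose response: 5 concentrations. Exposure: 48 h. Format: 96-well plates. Endpoint: linear interpolation; highest concentration if not reached. The concentration for 50% growth inhibition is given as GI50.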 Activity calls are given as the source filed them. Cut-off read from the data, not from the text of the source: active = GI50 up to about 1.1 µM and inactive = higher.

Columns and labels:
Test in all cases: NCI anticancer screen, dose series, 48 h
DLD-1 = system: DLD-1
DMS-114 = system: DMS-114
DMS-273 = system: DMS-273
HOP-18 = system: HOP-18
KM-20L2 = system: KM-20L2
M19-MEL = system: M19-MEL
XF498 = system: XF498
RXF 631 = system: RXF 631
SNB-78 = system: SNB-78

Measured: GI50

CCOC1=C2N=C(Cc3ccccc3F)N=C2C(=O)c2ccccc21
inactive: DLD-1 > 100 µM | DMS-114 > 100 µM | DMS-273 > 100 µM | HOP-18 > 100 µM | KM-20L2 > 100 µM | M19-MEL > 100 µM | XF498 > 100 µM

Cc1c2ccncc2c(C)c2c1[nH]c1ccc(OC(C)(C)C)cc12
inactive: DLD-1 2.39 µM | DMS-114 2.02 µM | DMS-273 1.86 µM | KM-20L2 1.78 µM | M19-MEL 2.14 µM | RXF 631 2.45 µM | SNB-78 2.41 µM | XF498 1.93 µM

NC(CCCNCc1ccccc1)C(=O)O (configuration not stated)
inactive: DLD-1 > 100 µM | DMS-114 > 100 µM | DMS-273 > 100 µM | HOP-18 > 100 µM | KM-20L2 > 100 µM | M19-MEL > 100 µM | RXF 631 > 100 µM

CCc1ccc(Cc2ccc(CC)c(NC(=O)C(=O)Cc3nc4ccccc4nc3C)c2CC)c(CC)c1NC(=O)C(=O)Cc1nc2ccccc2nc1C
inactive: DLD-1 > 100 µM | DMS-114 47.5 µM | KM-20L2 > 100 µM | M19-MEL > 100 µM | RXF 631 84.9 µM | SNB-78 76.2 µM

CCCCCCCCCCCc1cc(=O)c2c(O)cccc2o1
inactive: DLD-1 > 100 µM | DMS-114 38.7 µM | DMS-273 56.6 µM | HOP-18 > 100 µM | M19-MEL 43.8 µM | RXF 631 > 100 µM | SNB-78 > 100 µM | XF498 42.8 µM

COc1ccc(C(=O)C=C2NCCN2)cc1
inactive: DLD-1 > 100 µM | DMS-114 > 100 µM | DMS-273 > 100 µM | HOP-18 > 100 µM | KM-20L2 > 100 µM | M19-MEL > 100 µM | SNB-78 > 100 µM

CN(C)/N=N/c1c[nH]nc1C(N)=O
inactive: DLD-1 > 100 µM | DMS-114 > 100 µM | DMS-273 > 100 µM | HOP-18 > 100 µM | KM-20L2 > 100 µM | M19-MEL > 100 µM | XF498 > 100 µM

O=C(O)c1cc(S(=O)(=O)N/N=C\c2c3ccccc3[n+]([O-])c3ccccc23)ccc1O
inactive: DLD-1 16.7 µM | DMS-114 12.7 µM | DMS-273 7.16 µM | HOP-18 11.7 µM | KM-20L2 13.3 µM | M19-MEL 13.3 µM | SNB-78 20.6 µM

CCOC(=O)C(Cc1ccccc1)NC(=O)c1nc[nH]c1/N=N/N(C)C (configuration not stated)
inactive: DLD-1 > 100 µM | DMS-114 > 100 µM | DMS-273 > 100 µM | M19-MEL > 100 µM

COC(=O)C1=C(C(=O)OC)C2(CCCCCC2=O)OC1=O (configuration not stated)
inactive: DMS-114 > 100 µM | DMS-273 > 100 µM | KM-20L2 > 100 µM | M19-MEL > 100 µM | RXF 631 > 100 µM | SNB-78 > 100 µM | XF498 > 100 µM

Cc1cc(C)nc(NS(=O)(=O)c2ccc(Nc3c4ccccc4nc4c(C(=O)Nc5ccc(S(=O)(=O)Nc6cc(C)on6)cc5)ccc(Cl)c34)cc2)n1
inactive: DLD-1 17.2 µM | KM-20L2 19.5 µM | M19-MEL 37.9 µM | RXF 631 20.7 µM | SNB-78 29.2 µM | XF498 18.7 µM

O=C1c2ccccc2C(=O)C1C(c1ccc(F)cc1)C1C(=O)c2ccccc2C1=O
inactive: DLD-1 > 100 µM | DMS-114 > 100 µM | DMS-273 > 100 µM | HOP-18 > 100 µM | KM-20L2 > 100 µM | M19-MEL 61 µM | RXF 631 > 100 µM | SNB-78 > 100 µM | XF498 > 100 µM

N#CC1(CCCCl)CCCCC1
inactive: DLD-1 > 100 µM | DMS-114 > 100 µM | DMS-273 > 100 µM | HOP-18 72.9 µM | KM-20L2 > 100 µM | M19-MEL > 100 µM | RXF 631 > 100 µM | SNB-78 > 100 µM | XF498 > 100 µM

O=C(O)CCNCCCCNCCC(=O)O
inactive: DLD-1 > 100 µM | DMS-273 > 100 µM | HOP-18 > 100 µM | KM-20L2 > 100 µM | XF498 > 100 µM

CC(=O)OCC1OC(OC2CC3C(C)(C)C(O)CC[C@]3(C)C3CCC45CC4(CC[C@H]5C(C)CC(O)C4OC4(C)C)[C@]23C)C(O)C(O)C1O (some centres not stated)
inactive: DLD-1 8.09 µM | DMS-114 5.21 µM | DMS-273 8 µM | HOP-18 7.08 µM | KM-20L2 8.13 µM | M19-MEL 4.27 µM | XF498 4.13 µM

CC(=O)OC1CC2C(C)(C)C(=O)C=C[C@]2(C)C2CCC3(C)C(=CCC3[C@H](CO)C[C@H](O)C(=O)C(C)(C)O)[C@]12C (some centres not stated)
inactive: DLD-1 14.9 µM | DMS-114 33.9 µM | DMS-273 30.9 µM | HOP-18 54.1 µM | KM-20L2 13.6 µM | M19-MEL 35.8 µM | RXF 631 30.5 µM | SNB-78 76.4 µM

Clc1ccc(C2SCc3nc4ccccc4n32)c(Cl)c1 (configuration not stated)
inactive: DLD-1 15.7 µM | DMS-114 8.3 µM | HOP-18 19.5 µM | KM-20L2 21.4 µM | M19-MEL 14.8 µM | XF498 19.1 µM

CCOP(=O)(OCC)C(C(=O)OC)C(=O)C(=O)Nc1ccc(Cl)cc1Cl (configuration not stated)
inactive: DLD-1 > 100 µM | DMS-114 > 100 µM | DMS-273 > 100 µM | HOP-18 24 µM | KM-20L2 > 100 µM | M19-MEL > 100 µM | SNB-78 > 100 µM | XF498 3.78 µM

O=C(Nc1cc(Cl)c(Cl)cc1Cl)C(=O)C(C(=O)c1ccccc1)C1OC(=O)c2ccccc21 (configuration not stated)
inactive: DLD-1 > 100 µM | DMS-114 > 100 µM | DMS-273 > 100 µM | HOP-18 38.3 µM | KM-20L2 > 100 µM | M19-MEL > 100 µM | RXF 631 > 100 µM | SNB-78 > 100 µM | XF498 > 100 µM

CCCCCCCCCCn1cccc1/C=C/c1ccc(/C=C/c2cccn2CCCCCCCCCC)cc1
inactive: DLD-1 > 100 µM | DMS-114 > 100 µM | DMS-273 > 100 µM | HOP-18 > 100 µM | KM-20L2 > 100 µM | M19-MEL > 100 µM | SNB-78 > 100 µM | XF498 > 100 µM

COc1ccc(C=C(c2ccc(OCc3ccccc3)cc2)c2ccc(OCc3ccccc3)cc2)cc1
inactive: DLD-1 > 100 µM | DMS-114 > 100 µM | DMS-273 > 100 µM | HOP-18 > 100 µM | KM-20L2 > 100 µM | M19-MEL > 100 µM | RXF 631 > 100 µM | SNB-78 > 100 µM | XF498 > 100 µM
